This note sets out measurements from US20200331850A1, “NOVEL SULFONAMIDE CARBOXAMIDE COMPOUNDS” (Inflazome Limited, priority 2017, published 2020).

Counter-ions that a name gives are not always drawn. Some results are limits rather than exact numbers.

The target in the assay is NLRP3 (Homo sapiens, UniProt Q96P20). The experiment in a line: Human whole blood IL1β release assay (LPS + nigericin, AlphaLisa IL-1β). Type of assay: cell-based. Also on record: Plate out 80 μl of whole blood containing 1βg/ml of LPS in 96-well, clear bottom cell culture plate; from tissue; host or cells: human whole blood from healthy donors, LPS-primed and nigericin-stimulated. To be noted: NLRP3 inhibitory activity in human whole blood, IL-1β release, 10 μM nigericin, read-out: HWB IC50. As for the experimental part:
For systemic delivery, the ability to inhibit NLRP3 when the compounds are present within the bloodstream is of great importance. For this reason, the NLRP3 inhibitory activity of a number of compounds in human whole blood was investigated in accordance with the following protocol.
Human whole blood in Li-heparin tubes was obtained from healthy donors from a volunteer donor panel. • 1. Plate out 80 μl of whole blood containing 1βg/ml of LPS in 96-well, clear bottom cell culture plate (Corning #3585) • 2. Add 10 μl compound (8 points half-log dilution with 10 μM top dose) or vehicle (DMSO 0.1% FAC) to the appropriate wells • 3. Incubate for 3 hrs at 37° C., 5% CO2 • 4. Add 10 μl Nigericin (Sigma # N7143) (10 μM FAC) to all wells • 5. Incubate for 1 hr at 37° C., 5% CO2 • 6. At the end of the incubation period, spin plates at 300×g for 5 mins to pellet cells and remove 20 μl of supernatant and add to 96-well v-bottom plates for IL-1β analysis (note: these plates containing the supernatants can be stored at −80° C. to be analysed at a later date) • 7. IL-1β was measured according to the manufacturer protocol (Perkin Elmer-AlphaLisa IL-1 Kit AL220F-5000) • 8. IC50 data is fitted to a non-linear regression equation (log inhibitor vs response-variable slope 4-parameters)
Background: Alpha assays give light when donor and acceptor beads are brought close together.

Sequence of NLRP3 (Q96P20 whole entry): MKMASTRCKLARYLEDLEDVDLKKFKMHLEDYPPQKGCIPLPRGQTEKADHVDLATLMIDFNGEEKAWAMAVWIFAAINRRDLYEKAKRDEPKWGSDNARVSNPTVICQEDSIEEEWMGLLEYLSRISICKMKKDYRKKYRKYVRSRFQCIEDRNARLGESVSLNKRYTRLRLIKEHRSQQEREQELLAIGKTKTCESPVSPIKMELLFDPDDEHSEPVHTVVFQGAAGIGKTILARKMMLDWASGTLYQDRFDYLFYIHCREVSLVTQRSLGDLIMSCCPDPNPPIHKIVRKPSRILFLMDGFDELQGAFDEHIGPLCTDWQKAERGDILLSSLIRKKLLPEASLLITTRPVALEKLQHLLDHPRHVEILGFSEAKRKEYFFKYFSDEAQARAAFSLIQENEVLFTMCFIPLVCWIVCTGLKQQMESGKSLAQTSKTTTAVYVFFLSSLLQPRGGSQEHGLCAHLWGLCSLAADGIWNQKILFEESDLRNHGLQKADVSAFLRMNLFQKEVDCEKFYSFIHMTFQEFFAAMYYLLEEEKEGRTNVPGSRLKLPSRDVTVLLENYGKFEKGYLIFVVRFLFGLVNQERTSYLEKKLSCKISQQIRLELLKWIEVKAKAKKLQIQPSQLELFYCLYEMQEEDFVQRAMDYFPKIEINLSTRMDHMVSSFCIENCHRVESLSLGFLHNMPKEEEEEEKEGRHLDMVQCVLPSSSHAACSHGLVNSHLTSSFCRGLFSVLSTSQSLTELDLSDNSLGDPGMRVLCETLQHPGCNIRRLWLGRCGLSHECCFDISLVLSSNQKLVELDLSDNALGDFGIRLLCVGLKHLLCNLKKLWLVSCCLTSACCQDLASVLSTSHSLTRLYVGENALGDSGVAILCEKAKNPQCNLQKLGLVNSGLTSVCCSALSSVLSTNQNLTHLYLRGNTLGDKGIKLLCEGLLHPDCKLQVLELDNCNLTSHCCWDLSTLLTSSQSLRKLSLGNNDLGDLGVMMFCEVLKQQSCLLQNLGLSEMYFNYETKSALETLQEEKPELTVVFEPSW

A word on the IC50: it is the point on the concentration scale where inhibition reaches its midpoint. `CCN(CCS(=O)(=O)NC(=O)Nc1c2c(cc3c1CCC3)CCC2)Cc1ccccc1` [Example 11, 2-(Benzyl(ethyl)amino)-N-((1,2,3,5,6,7-hexahydro-s-indacen-4-yl)carbamoyl)ethane-1-sulfonamide, potassium salt]: the IC50 was at most 7.5 µM. Next, `Cn1cc(CS(=O)(=O)NC(=O)Nc2c3c(cc4c2CCC4)CCC3)cn1` [Example 35, N-((1,2,3,5,6,7-hexahydro-s-indacen-4-yl)carbamoyl)-1-(1-methyl-1H-pyrazol-4-yl)methanesulfonamide]: at most 5 µM; `CN1CCCC(CS(=O)(=O)NC(=O)Nc2c3c(cc4c2CCC4)CCC3)C1` (stereo not shown) [Example 83, N-((1,2,3,5,6,7-Hexahydro-s-indacen-4-yl)carbamoyl)-1-(1-methylpiperidin-3-yl)methanesulfonamide]: at most 1 µM; `CC(C)C(=O)N(C)CCCS(=O)(=O)NC(=O)Nc1c2c(cc3c1CCC3)CCC2` [Example 95, N-(3-(N-((1,2,3,5,6,7-Hexahydro-s-indacen-4-yl)carbamoyl)sulfamoyl)propyl)-N-methylisobutyramide]: at most 5 µM.

As for `CN(C)C(=O)CCS(=O)(=O)NC(=O)Nc1c2c(cc3c1CCC3)CCC2` [Example 97, 3-(N-((1,2,3,5,6,7-Hexahydro-s-indacen-4-yl)carbamoyl)sulfamoyl)-N,N-dimethylpropanamide], the IC50 is at most 7.5 µM. Next, `CN1CCC(CS(=O)(=O)NC(=O)Nc2c3c(cc4c2CCC4)CCC3)C1` (stereo not shown) [Example 23, N-((1,2,3,5,6,7-Hexahydro-s-indacen-4-yl)carbamoyl)-1-(1-methylpyrrolidin-3-yl)methanesulfonamide, Potassium Salt]: at most 1 µM; `O=C(Nc1c2c(cc3c1CCC3)CCC2)NS(=O)(=O)CCCN1CCC1` [Example 72, 3-(Azetidin-1-yl)-N-((1,2,3,5,6,7-hexahydro-s-indacen-4-yl)carbamoyl)propane-1-sulfonamide, Potassium Salt]: at most 1 µM; `CC1CC(C)N1CCS(=O)(=O)NC(=O)Nc1c2c(cc3c1CCC3)CCC2` (stereo not shown) [Example 103, 2-(2,4-Dimethylazetidin-1-yl)-N-((1,2,3,5,6,7-hexahydro-s-indacen-4-yl)carbamoyl)ethane-1-sulfonamide]: at most 1 µM.

Regarding `CC(C)C1CCN1CCS(=O)(=O)NC(=O)Nc1c2c(cc3c1CCC3)CCC2` (stereo not shown) [Example 104, N-((1,2,3,5,6,7-Hexahydro-s-indacen-4-yl)carbamoyl)-2-(2-isopropylazetidin-1-yl)ethane-1-sulfonamide], the IC50 was at most 1 µM. As for `O=C(Nc1c2c(cc3c1CCC3)CCC2)NS(=O)(=O)CCN1CC(F)C1` [Example 90, 2-(3-Fluoroazetidin-1-yl)-N-((1,2,3,5,6,7-hexahydro-s-indacen-4-yl)carbamoyl)ethane-1-sulfonamide], the IC50 is at most 5 µM. Regarding `C#CCN(C)CCCS(=O)(=O)NC(=O)Nc1c2c(cc3c1CCC3)CCC2` [Example 73], the IC50 was at most 5 µM. Turning to `CCN1CCC(CS(=O)(=O)NC(=O)Nc2c3c(cc4c2CCC4)CCC3)CC1` [Example 1, 1-(1-Ethylpiperidin-4-yl)-N-((1,2,3,5,6,7-hexahydro-s-indacen-4-yl)carbamoyl)methanesulfonamide, potassium salt], the IC50 was at most 1 µM. Next, `CCN(CCCCS(=O)(=O)NC(=O)Nc1c2c(cc3c1CCC3)CCC2)Cc1ccccc1` [Example 13, 4-(Benzyl(ethyl)amino)-N-((1,2,3,5,6,7-hexahydro-s-indacen-4-yl)carbamoyl)butane-1-sulfonamide, potassium salt]: at most 5 µM; `CC1(C)C2CC[C@@]1(CS(=O)(=O)NC(=O)Nc1c3c(cc4c1CCC4)CCC3)/C(=N/O)C2` [Example 71, N-((1,2,3,5,6,7-Hexahydro-s-indacen-4-yl)carbamoyl)-1-((1S,E)-2-(hydroxyimino)-7,7-dimethylbicyclo[2.2.1]heptan-1-yl)methane sulfonamide, Potassium Salt]: at most 10 µM; `CCN(C)CCCS(=O)(=O)NC(=O)Nc1c2c(cc3c1CCC3)CCC2` [Example 27, 3-(Ethyl(methyl)amino)-N-((1,2,3,5,6,7-hexahydro-s-indacen-4-yl)carbamoyl)propane-1-sulfonamide, potassium salt]: at most 1 µM. `CN1CCOC(CS(=O)(=O)NC(=O)Nc2c3c(cc4c2CCC4)CCC3)C1` (stereo not shown) [Example 74, N-((1,2,3,5,6,7-Hexahydro-s-indacen-4-yl)carbamoyl)-1-(4-methylmorpholin-2-yl)methanesulfonamide, Potassium Salt]: the IC50 is at most 5 µM. Next, `CON(C)CCCS(=O)(=O)NC(=O)Nc1c2c(cc3c1CCC3)CCC2` [Example 70, N-((1,2,3,5,6,7-Hexahydro-s-indacen-4-yl)carbamoyl)-3-(methoxy(methyl)amino)propane-1-sulfonamide, Potassium Salt]: at most 5 µM. Turning to `CCN1CCCC(CS(=O)(=O)NC(=O)Nc2c3c(cc4c2CCC4)CCC3)C1` (stereo not shown) [Example 84, 1-(1-Ethylpiperidin-3-yl)-N-((1,2,3,5,6,7-hexahydro-s-indacen-4-yl)carbamoyl)methanesulfonamide], the IC50 is at most 1 µM.

As for `CC(CN(C)C)CS(=O)(=O)NC(=O)Nc1c2c(cc3c1CCC3)CCC2` (stereo not shown) [Example 36, 3-(Dimethylamino)-N-((1,2,3,5,6,7-hexahydro-s-indacen-4-yl)carbamoyl)-2-methylpropane-1-sulfonamide, potassium salt], the IC50 was at most 1 µM. Consider `CN1CCCC1CS(=O)(=O)NC(=O)Nc1c2c(cc3c1CCC3)CCC2` (stereo not shown) [Example 105, N-((1,2,3,5,6,7-Hexahydro-s-indacen-4-yl)carbamoyl)-1-(1-methylpyrrolidin-2-yl)methanesulfonamide], for which the IC50 was at most 1 µM. The same measure for `CC(C)N1CCCC1CS(=O)(=O)NC(=O)Nc1c2c(cc3c1CCC3)CCC2` (stereo not shown) [Example 107, N-((1,2,3,5,6,7-Hexahydro-s-indacen-4-yl)carbamoyl)-1-(1-isopropylpyrrolidin-2-yl)methanesulfonamide]: at most 1 µM. The same measure for `CC(C)N1CCCCC1CS(=O)(=O)NC(=O)Nc1c2c(cc3c1CCC3)CCC2` (stereo not shown) [Example 109, N-((1,2,3,5,6,7-Hexahydro-s-indacen-4-yl)carbamoyl)-1-(1-isopropylpiperidin-2-yl)methanesulfonamide]: at most 1 µM; for `CCN1CCCCC1CS(=O)(=O)NC(=O)Nc1c2c(cc3c1CCC3)CCC2` (stereo not shown) [Example 110, 1-(1-Ethylpiperidin-2-yl)-N-((1,2,3,5,6,7-hexahydro-s-indacen-4-yl)carbamoyl)methanesulfonamide]: at most 1 µM; for `O=C(Nc1c2c(cc3c1CCC3)CCC2)NS(=O)(=O)CCN1CCCCC1` [Example 28, N-((1,2,3,5,6,7-Hexahydro-s-indacen-4-yl)carbamoyl)-2-(piperidin-1-yl)ethane-1-sulfonamide, Potassium Salt]: at most 1 µM. The same measure for `O=C(Nc1c2c(cc3c1CCC3)CCC2)NS(=O)(=O)Cc1cccnc1` [Example 20, N-((1,2,3,5,6,7-Hexahydro-s-indacen-4-yl)carbamoyl)-1-(pyridin-3-yl)methanesulfonamide, potassium salt]: at most 5 µM.

As for `CC(CS(=O)(=O)NC(=O)Nc1c2c(cc3c1CCC3)CCC2)N1CCC1` (stereo not shown) [Example 91, 2-(Azetidin-1-yl)-N-((1,2,3,5,6,7-hexahydro-s-indacen-4-yl)carbamoyl)propane-1-sulfonamide], the IC50 is at most 1 µM. Take `COc1cc(-c2cc(F)cc(C(C)C)c2NC(=O)NS(=O)(=O)CC2CCN(C)C2)ccn1` (stereo not shown) [Example 58, N-((4-Fluoro-2-isopropyl-6-(2-methoxypyridin-4-yl)phenyl)carbamoyl)-1-(1-methylpyrrolidin-3-yl)methanesulfonamide]: the IC50 is at most 1 µM. The same measure for `COc1cc(-c2ccc3c(c2NC(=O)NS(=O)(=O)CC2CCN(C)C2)CCC3)ccn1` (stereo not shown) [Example 59, N-((5-(2-Methoxypyridin-4-yl)-2,3-dihydro-1H-inden-4-yl)carbamoyl)-1-(1-methylpyrrolidin-3-yl)methanesulfonamide]: at most 1 µM; for `CC(CCS(=O)(=O)NC(=O)Nc1c2c(cc3c1CCC3)CCC2)N(C)C` (stereo not shown) [Example 78, 3-(Dimethylamino)-N-((1,2,3,5,6,7-hexahydro-s-indacen-4-yl)carbamoyl)butane-1-sulfonamide, potassium salt]: at most 1 µM; for `CN(CCCS(=O)(=O)NC(=O)Nc1c2c(cc3c1CCC3)CCC2)Cc1ccccc1` [Example 67, 3-(Benzyl(methyl)amino)-N-((1,2,3,5,6,7-hexahydro-s-indacen-4-yl)carbamoyl)propane-1-sulfonamide, potassium salt]: at most 10 µM. For the molecule `CC1CCN1CCS(=O)(=O)NC(=O)Nc1c2c(cc3c1CCC3)CCC2` (stereo not shown) [Example 89, N-((1,2,3,5,6,7-Hexahydro-s-indacen-4-yl)carbamoyl)-2-(2-methylazetidin-1-yl)ethane-1-sulfonamide], the IC50 is at most 1 µM.
